Reference: ChEMBL document CHEMBL1201862, “PubChem BioAssay data set” (2004)
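Briefly, cells in 96-well plates were exposed to five compound concentrations for 48 h, and endpoints were estimated by linear interpolation. At the GI50, growth is halved.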 The source made the active and inactive calls. Rule as the data show it: active = GI50 up to about 1.1 µM and inactive = higher.

Tests used:
Experiment in all cases: inhibition of tumour cell growth, NCI panel, 48 h
MOLT-4 = test system: MOLT-4
RPMI-8226 = test system: RPMI-8226
HOP-92 = test system: HOP-92
Hs-578T = test system: Hs-578T
SK-MEL-2 = test system: SK-MEL-2
COLO 205 = test system: COLO 205
NCI-H23 = test system: NCI-H23
Malme-3M = test system: Malme-3M
SK-MEL-5 = test system: SK-MEL-5
RXF 393 = test system: RXF 393
UACC-62 = test system: UACC-62
M14 = test system: M14
DU-145 = test system: DU-145
BT-549 = test system: BT-549
CCRF-CEM = test system: CCRF-CEM
CAKI-1 = test system: CAKI-1
IGROV-1 = test system: IGROV-1
MCF7 = test system: MCF7
MDA-N = test system: MDA-N

Row | SMILES | GI50 (MOLT-4) | GI50 (RPMI-8226) | GI50 (HOP-92) | GI50 (Hs-578T) | GI50 (SK-MEL-2) | GI50 (COLO 205) | GI50 (NCI-H23) | GI50 (Malme-3M) | GI50 (SK-MEL-5) | GI50 (RXF 393) | GI50 (UACC-62) | GI50 (M14) | GI50 (DU-145) | GI50 (BT-549) | GI50 (CCRF-CEM) | GI50 (CAKI-1) | GI50 (IGROV-1) | GI50 (MCF7) | GI50 (MDA-N)
1 | Cc1ccc([S+]([O-])C[C@@]2(C(F)F)NC(=O)NC2=O)cc1 (stereo partly specified) | > 100 µM (inactive) | > 100 µM (inactive) | > 100 µM (inactive) | > 100 µM (inactive) | > 100 µM (inactive) | > 100 µM (inactive) | > 100 µM (inactive) | > 100 µM (inactive) | > 100 µM (inactive) | > 100 µM (inactive) | > 100 µM (inactive) | > 100 µM (inactive) | > 100 µM (inactive) | > 100 µM (inactive) | > 100 µM (inactive) | > 100 µM (inactive) | > 100 µM (inactive) |  | 
2 | NC(Cc1ccc(O)c(O)c1)P(=O)(O)O (stereo unspecified) | > 100 µM (inactive) | 92.7 µM (inactive) | > 100 µM (inactive) |  | > 100 µM (inactive) | > 10 µM (inactive) | > 100 µM (inactive) | 81.5 µM (inactive) | > 100 µM (inactive) | > 100 µM (inactive) | > 100 µM (inactive) | > 100 µM (inactive) | > 100 µM (inactive) | > 100 µM (inactive) | 21.6 µM (inactive) | > 100 µM (inactive) | > 100 µM (inactive) | > 10 µM (inactive) | > 100 µM (inactive)
3 | Cc1cc(Br)c(N2C3=C(CC4=C2CCCC4=O)C(=O)CCC3)c(Br)c1 | 15.4 µM (inactive) | 27.4 µM (inactive) | 25.6 µM (inactive) | > 100 µM (inactive) |  |  | 50.9 µM (inactive) |  | 38.7 µM (inactive) | 25.8 µM (inactive) | 63.2 µM (inactive) | > 100 µM (inactive) |  | 51.3 µM (inactive) | 10.3 µM (inactive) | > 100 µM (inactive) | > 100 µM (inactive) | 33.3 µM (inactive) | 
4 | COc1ccc2c3c([nH]c2c1)CCN(CCCC(=O)c1ccc(F)cc1)C3 | 16.7 µM (inactive) | 16.7 µM (inactive) |  | 6.56 µM (inactive) | 17.5 µM (inactive) | 12.8 µM (inactive) | 19.4 µM (inactive) | 13.4 µM (inactive) | 13.2 µM (inactive) | 14.2 µM (inactive) | 13.8 µM (inactive) | 15.5 µM (inactive) | 18.7 µM (inactive) |  | 19.8 µM (inactive) | 16 µM (inactive) | 18.4 µM (inactive) | 17.3 µM (inactive) | 20 µM (inactive)
5 | COc1ccc(C23OCC(Cc4cc(OC)c(OC)cc42)C3COC(C)=O)cc1OC (stereo unspecified) | > 100 µM (inactive) | > 100 µM (inactive) | > 100 µM (inactive) |  | > 100 µM (inactive) | > 100 µM (inactive) | 56.1 µM (inactive) | > 100 µM (inactive) | 20.7 µM (inactive) | > 100 µM (inactive) | > 100 µM (inactive) | > 100 µM (inactive) | > 100 µM (inactive) | > 100 µM (inactive) |  | > 100 µM (inactive) |  | > 100 µM (inactive) | 
6 | CC(=O)c1cc2ccccc2[n+]([O-])c1N | > 100 µM (inactive) |  | > 100 µM (inactive) | > 100 µM (inactive) | > 100 µM (inactive) | > 100 µM (inactive) | > 100 µM (inactive) | > 100 µM (inactive) | > 100 µM (inactive) | > 100 µM (inactive) | > 100 µM (inactive) | > 100 µM (inactive) | > 100 µM (inactive) |  | > 100 µM (inactive) | > 100 µM (inactive) | > 100 µM (inactive) | > 100 µM (inactive) | > 100 µM (inactive)
7 | O=C(CN1CCCC1)Nc1ccc2c(c1)C1Oc3ccccc3CC1CO2 (stereo unspecified) | 31.4 µM (inactive) | 25.1 µM (inactive) | 16.7 µM (inactive) |  | 23.9 µM (inactive) | 14 µM (inactive) | 38.5 µM (inactive) | 16.7 µM (inactive) | 14.6 µM (inactive) |  | 17 µM (inactive) | 20.1 µM (inactive) | > 100 µM (inactive) | 19.4 µM (inactive) | 47.2 µM (inactive) | 49.3 µM (inactive) | 36.6 µM (inactive) | 17.3 µM (inactive) | 31.2 µM (inactive)
8 | NC(=O)c1cc2ccc(O)cc2o/c1=N/NC(=O)c1ccccc1 | 35.1 µM (inactive) | 77.3 µM (inactive) | > 100 µM (inactive) | 81.3 µM (inactive) | 28.2 µM (inactive) | > 100 µM (inactive) | 89.9 µM (inactive) | 84.3 µM (inactive) | 39.8 µM (inactive) | 40.6 µM (inactive) | 62.2 µM (inactive) | 86.5 µM (inactive) |  | 52.2 µM (inactive) | 48.6 µM (inactive) | 36.6 µM (inactive) | 46.7 µM (inactive) | > 100 µM (inactive) | 72.8 µM (inactive)
9 | CCOC(CNCCC(=O)OC)OCC | > 10 µM (inactive) | > 10 µM (inactive) | > 10 µM (inactive) | > 10 µM (inactive) | > 10 µM (inactive) | > 10 µM (inactive) | > 10 µM (inactive) | > 10 µM (inactive) | > 10 µM (inactive) | > 10 µM (inactive) | > 10 µM (inactive) | > 10 µM (inactive) | > 10 µM (inactive) |  | > 10 µM (inactive) | > 10 µM (inactive) | > 10 µM (inactive) | > 10 µM (inactive) | > 10 µM (inactive)
10 | COc1cccc(C2c3cc4c(cc3OC(N3CCCC3)C2C)OCO4)c1 (stereo unspecified) |  | 4.85 µM (inactive) | 2.83 µM (inactive) | 8.3 µM (inactive) | 5.48 µM (inactive) | 9.77 µM (inactive) | 22.8 µM (inactive) |  | 5.53 µM (inactive) |  | 4.66 µM (inactive) | 3.96 µM (inactive) | 16.3 µM (inactive) |  | 0.513 µM (active) | 2.12 µM (inactive) | 6.32 µM (inactive) | 5.85 µM (inactive) | 1.79 µM (inactive)
11 | CC(C)(/C=N\O)NO | > 10 µM (inactive) | > 10 µM (inactive) | > 10 µM (inactive) |  | > 10 µM (inactive) | > 10 µM (inactive) | > 10 µM (inactive) | > 10 µM (inactive) |  | > 10 µM (inactive) |  | > 10 µM (inactive) | > 10 µM (inactive) | > 10 µM (inactive) | > 10 µM (inactive) | > 10 µM (inactive) |  | > 10 µM (inactive) | > 10 µM (inactive)
12 | COC(=O)CCC12CCC(O1)c1ccccc12 (stereo unspecified) | > 100 µM (inactive) | > 100 µM (inactive) | 92.5 µM (inactive) |  |  | > 100 µM (inactive) | > 100 µM (inactive) |  | > 100 µM (inactive) | > 100 µM (inactive) | > 100 µM (inactive) | > 100 µM (inactive) | > 100 µM (inactive) | > 100 µM (inactive) | > 100 µM (inactive) | > 100 µM (inactive) | > 100 µM (inactive) | > 100 µM (inactive) | > 100 µM (inactive)
13 | O=c1c2ccccc2nnn1-c1n[nH]c2ccccc12 |  | > 100 µM (inactive) | > 100 µM (inactive) | > 100 µM (inactive) | > 100 µM (inactive) | > 100 µM (inactive) | > 100 µM (inactive) | > 100 µM (inactive) | 37.8 µM (inactive) | > 100 µM (inactive) | > 100 µM (inactive) | > 100 µM (inactive) | > 100 µM (inactive) | > 100 µM (inactive) | > 100 µM (inactive) | > 100 µM (inactive) | > 100 µM (inactive) | > 100 µM (inactive) | 
14 | CCOC1=C/C(=N\Nc2ccc([N+](=O)[O-])cc2)CCC1 | 4.83 µM (inactive) | 14.9 µM (inactive) | 39.8 µM (inactive) | 38.5 µM (inactive) | 21.5 µM (inactive) | 15.3 µM (inactive) | 18.5 µM (inactive) | 96.2 µM (inactive) | 18.9 µM (inactive) | 21.9 µM (inactive) | 22.5 µM (inactive) | 49.4 µM (inactive) | > 100 µM (inactive) | 13.6 µM (inactive) |  | 28.8 µM (inactive) | 15 µM (inactive) | 18.3 µM (inactive) | 
15 | CC(C)(C)C=C=C(C(C)(C)C)P(=O)(O)O |  | < 0.01 µM (active) | > 100 µM (inactive) | > 100 µM (inactive) | > 100 µM (inactive) | > 100 µM (inactive) | > 100 µM (inactive) | > 100 µM (inactive) | > 100 µM (inactive) | > 100 µM (inactive) | > 100 µM (inactive) | > 100 µM (inactive) | > 100 µM (inactive) |  |  | > 100 µM (inactive) | > 100 µM (inactive) |  | > 100 µM (inactive)
16 | C/C(=C\CNc1ncnc2[nH]c(Cl)nc12)CO | > 100 µM (inactive) | > 100 µM (inactive) | > 100 µM (inactive) | > 100 µM (inactive) |  | > 100 µM (inactive) | > 100 µM (inactive) | > 100 µM (inactive) | > 100 µM (inactive) | > 100 µM (inactive) |  | > 100 µM (inactive) | > 100 µM (inactive) |  | > 100 µM (inactive) | > 100 µM (inactive) | > 100 µM (inactive) | > 100 µM (inactive) | > 100 µM (inactive)
17 | CCOC(=O)c1cn(CC)c2cc3c(cc2c1=O)SCS3 | > 100 µM (inactive) | > 100 µM (inactive) | > 100 µM (inactive) |  | > 100 µM (inactive) | > 100 µM (inactive) | > 100 µM (inactive) | > 100 µM (inactive) | > 100 µM (inactive) | > 100 µM (inactive) | > 100 µM (inactive) | > 100 µM (inactive) |  |  | > 100 µM (inactive) | > 100 µM (inactive) | > 100 µM (inactive) |  | 
